Test results as given in US4113855A, “Composition of matter and process” (The Upjohn Company, priority 1977, dated 1978).

Assays:
[1] = system: Bacillus subtillis; assay: standard disc plate assay (12.7 mm assay discs); type: cell-based; details: 1 mg/ml, 12.7 mm discs
[2] = basicity; type: physicochemical
[3] = system: P. aeruginosa Strain No. 6430; assay: standard agar disc plate assay using 6.35 mm paper discs; type: cell-based, Pseudomonas aeruginosa; details: for Zones of Inhibition: strain 6430, 0.03 ml of 1 mg/ml per 6.35 mm disc; for zone of inhibition at 1000 µg/mL: Pseudomonas aeruginosa, read-out: Zones of Inhibition
[4] = system: species of Proteus; assay: antibacterial activity; type: cell-based
[5] = system: P. aeruginosa Strain No. 6434; assay: standard agar disc plate assay using 6.35 mm paper discs; type: cell-based, Pseudomonas aeruginosa; details: for Zones of Inhibition: strain 6434, 0.03 ml of 1 mg/ml per 6.35 mm disc; for zone of inhibition at 1000 µg/mL: Pseudomonas aeruginosa, read-out: Zones of Inhibition
[6] = system: P. aeruginosa Strain No. 6433; assay: nutrient broth dilution test; type: cell-based, Pseudomonas aeruginosa; details: strain 6433; 32° C., 18 hours
Protocol: (§1) Antibiotic 354 was also tested on a nutrient broth dilution test against the same Pseudomonas strains listed above. The test tubes were incubated at 32° C. for 18 hours.

[7] = system: P. aeruginosa Strain No. 6434; assay: nutrient broth dilution test; type: cell-based, Pseudomonas aeruginosa; details: strain 6434; 32° C., 18 hours
Protocol: as §1

[8] = system: P. aeruginosa Strain No. 6430; assay: nutrient broth dilution test; type: cell-based, Pseudomonas aeruginosa; details: strain 6430; 32° C., 18 hours
Protocol: as §1

[9] = system: P. aeruginosa Strain No. 6429; assay: nutrient broth dilution test; type: cell-based, Pseudomonas aeruginosa; details: strain 6429; 32° C., 18 hours
Protocol: as §1

[10] = system: P. aeruginosa Strain No. 6431; assay: nutrient broth dilution test; type: cell-based, Pseudomonas aeruginosa; details: strain 6431; 32° C., 18 hours
Protocol: as §1

[11] = system: P. aeruginosa Strain No. 6436; assay: nutrient broth dilution test; type: cell-based, Pseudomonas aeruginosa; details: strain 6436; 32° C., 18 hours
Protocol: as §1

[12] = system: P. aeruginosa Strain No. 6435; assay: nutrient broth dilution test; type: cell-based, Pseudomonas aeruginosa; details: strain 6435; 32° C., 18 hours
Protocol: as §1

[13] = system: Pseudomonas mildenbergii; assay: standard disc plate assay (12.7 mm assay discs); type: cell-based; details: 1 mg/ml, 12.7 mm discs
[14] = system: P. aeruginosa Strain No. 6436; assay: standard agar disc plate assay using 6.35 mm paper discs; type: cell-based, Pseudomonas aeruginosa; details: for Zones of Inhibition: strain 6436, 0.03 ml of 1 mg/ml per 6.35 mm disc; for zone of inhibition at 1000 µg/mL: Pseudomonas aeruginosa, read-out: Zones of Inhibition
[15] = system: P. aeruginosa Strain No. 6435; assay: as above; type: cell-based, Pseudomonas aeruginosa; details: for Zones of Inhibition: strain 6435, 0.03 ml of 1 mg/ml per 6.35 mm disc; for zone of inhibition at 1000 µg/mL: Pseudomonas aeruginosa, read-out: Zones of Inhibition
[16] = system: species of Pseudomonas; assay: antibacterial activity; type: cell-based
[17] = system: Pseudomonas mildenbergii (UC 3029); assay: agar disc plate assay, biounits; type: cell-based; details: vs. UC 3029; BU = concentration giving a 20 mm zone of inhibition
Protocol: The assay is an agar disc plate assay using the microorganism P. mildenbergii. The agar medium is buffered with 0.1 M phosphate buffer at a pH of 7.4. A unit volume (0.08 ml) of solution containing the substance to be assayed is placed on a 12.7 mm paper disc which is then placed on an agar plate seeded with the assay organism. The agar plate is then incubated for 16-18 hours at 37° C. A biounit (BU) is defined as the concentration of the antibiotic which gives a 20 mm zone of inhibition under the above assay conditions.

[18] = system: Salmonella schottmuelleri UC 126; assay: microplate broth dilution assay using nutrient broth; type: cell-based
Source text: (§2) On testing antibiotic 354 by a microplate broth dilution assay using nutrient broth the following spectrum was observed.

[19] = system: Salmonella typhi; assay: as above; type: cell-based
Source text: as §2

[20] = system: Klebsiella pneumoniae UC 57; assay: as above; type: cell-based
Source text: as §2

[21] = system: Staphylococcus aureus UC 76; assay: as above; type: cell-based
Source text: as §2

[22] = system: Serratia marcescens UC 131; assay: as above; type: cell-based
Source text: as §2

[23] = system: Proteus mirabilis; assay: as above; type: cell-based
Source text: as §2

[24] = system: Klebsiella pneumoniae UC 58; assay: as above; type: cell-based
Source text: as §2

[25] = system: Streptococcus fecalis UC 694; assay: as above; type: cell-based
Source text: as §2

[26] = system: P. aeruginosa Strain No. 6429; assay: standard agar disc plate assay using 6.35 mm paper discs; type: cell-based, Pseudomonas aeruginosa; details: for Zones of Inhibition: strain 6429, 0.03 ml of 1 mg/ml per 6.35 mm disc; for zone of inhibition at 1000 µg/mL: Pseudomonas aeruginosa, read-out: Zones of Inhibition
[27] = system: P. aeruginosa Strain No. 6431; assay: as above; type: cell-based, Pseudomonas aeruginosa; details: for Zones of Inhibition: strain 6431, 0.03 ml of 1 mg/ml per 6.35 mm disc; for zone of inhibition at 1000 µg/mL: Pseudomonas aeruginosa, read-out: Zones of Inhibition
[28] = system: Gram-negative bacteria; assay: antibacterial activity; type: cell-based
[29] = system: P. aeruginosa Strain No. 6433; assay: standard agar disc plate assay using 6.35 mm paper discs; type: cell-based, Pseudomonas aeruginosa; details: for Zones of Inhibition: strain 6433, 0.03 ml of 1 mg/ml per 6.35 mm disc
[30] = system: Pseudomonas aeruginosa GN-315 (UC 6149); assay: antibacterial activity; type: cell-based
[31] = system: Pseudomonas aeruginosa strains obtained from Bronson Hospital; assay: antibacterial activity against hospital strains; type: cell-based; details: Kalamazoo

N=C1C=C[C@@]2(O)C[C@H](Cl)CN12 [Antibiotic 354]
Zone Of Inhibition [1]: 25 mm
basicity [2]: strongly basic
Zones of Inhibition [3]: 33 mm
activity against species of Proteus [4]: very active
Zones of Inhibition [5]: 20 mm
Minimum Inhibitory Concentration [6]: 25 µg/mL
Minimum Inhibitory Concentration [7]: 12.5 µg/mL
Minimum Inhibitory Concentration [8]: 25 µg/mL
Minimum Inhibitory Concentration [9]: 25 µg/mL
Minimum Inhibitory Concentration [10]: 25 µg/mL
Minimum Inhibitory Concentration [11]: 25 µg/mL
Minimum Inhibitory Concentration [12]: 12.5 µg/mL
Zone Of Inhibition [13]: 30 mm
Zones of Inhibition [14]: 22 mm
Zones of Inhibition [15]: 24 mm
activity against species of Pseudomonas [16]: very active
potency in biounits [17]: 8 BU/mg
Minimum Inhibitory Concentration [18]: 7.8 µg/mL
Minimum Inhibitory Concentration [19]: 15.6 µg/mL
Minimum Inhibitory Concentration [20]: 31.2 µg/mL
Minimum Inhibitory Concentration [21]: 31.2 µg/mL
Minimum Inhibitory Concentration [22]: 3.9 µg/mL
Minimum Inhibitory Concentration [23]: 31.2 µg/mL
Minimum Inhibitory Concentration [24]: 7.8 µg/mL
Minimum Inhibitory Concentration [25]: 125 µg/mL
Zones of Inhibition [26]: 22 mm
Zones of Inhibition [27]: 22 mm
activity against Gram-negative bacteria [28]: active
Zones of Inhibition [29]: 21 mm
activity / resistance, P. aeruginosa GN-315 [30]: active
activity / resistance, Bronson Hospital P. aeruginosa strains [31]: active

NC[C@H]1O[C@H](O[C@H]2[C@H](O)[C@@H](O[C@H]3O[C@H](CO)[C@@H](O)[C@H](N)[C@H]3O)[C@H](N)C[C@@H]2N)[C@H](O)[C@@H](O)[C@@H]1O [Kanamycin]
zone of inhibition at 1000 µg/mL [3]: 11 mm
zone of inhibition at 1000 µg/mL [5]: 13 mm
zone of inhibition at 1000 µg/mL [14]: 0 mm
zone of inhibition at 1000 µg/mL [15]: 0 mm
zone of inhibition at 1000 µg/mL [26]: 11 mm
zone of inhibition at 1000 µg/mL [27]: 0 mm
Zones of Inhibition [29]: trace
activity / resistance, P. aeruginosa GN-315 [30]: resistant
activity / resistance, Bronson Hospital P. aeruginosa strains [31]: relatively resistant

CCn1cc(C(=O)O)c(=O)c2ccc(C)nc21 [Nalidixic Acid]
zone of inhibition at 1000 µg/mL [3]: 13 mm
zone of inhibition at 1000 µg/mL [5]: 13 mm
zone of inhibition at 1000 µg/mL [14]: 13 mm
zone of inhibition at 1000 µg/mL [15]: 17 mm
zone of inhibition at 1000 µg/mL [26]: 13 mm
zone of inhibition at 1000 µg/mL [27]: 12 mm
zone of inhibition at 1000 µg/mL ([29]; Pseudomonas aeruginosa, read-out: Zones of Inhibition): 13 mm
activity / resistance, P. aeruginosa GN-315 [30]: resistant
activity / resistance, Bronson Hospital P. aeruginosa strains [31]: relatively resistant

Gentamycin
Zones of Inhibition [3]: 14 mm
Zones of Inhibition [5]: 22 mm
Zones of Inhibition [14]: 9 mm
Zones of Inhibition [15]: 13 mm
Zones of Inhibition [26]: 14 mm
Zones of Inhibition [27]: trace
Zones of Inhibition [29]: 11 mm
activity / resistance, P. aeruginosa GN-315 [30]: resistant
activity / resistance, Bronson Hospital P. aeruginosa strains [31]: relatively resistant

Polymyxin B
Zones of Inhibition [3]: trace
Zones of Inhibition [5]: trace
Zones of Inhibition [14]: 9 mm
Zones of Inhibition [15]: trace
Zones of Inhibition [26]: trace
Zones of Inhibition [27]: trace
Zones of Inhibition [29]: trace
activity / resistance, Bronson Hospital P. aeruginosa strains [31]: relatively resistant
